Source: PubChem BioAssay AID328 (DTP/NCI, 2004)
Where “and” joins values, the source holds several entries; their conditions need not be identical. Equal entries are not always repeated. Inconclusive results and toxic doses are left out. How the source made its calls: active means survival T/C of 150% or more; inactive means T/C below 125% in these data.

Test system: BDF1 mice, P388 leukemia ip, median survival T/C
Test: NCI In Vivo Anticancer Drug Screen. Data for tumor model P388 Leukemia (intraperitoneal) in B6D2F1 (BDF1) mice
Details: endpoint: median survival time, higher = longer survival
Procedure, shortened: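 Vehicle-dosed animals serve as the reference; survival of compound-dosed, tumour-implanted mice is divided by it.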

[1] = dose: 50.0 mg/kg/injection, schedule: Q01DX009 (ip), vehicle: saline with Tween-80
[2] = dose: 100.0 mg/kg/injection, schedule: Q01DX009 (ip), vehicle: saline with Tween-80
[3] = dose: 200.0 mg/kg/injection, schedule: Q01DX009 (ip), vehicle: saline with Tween-80
[4] = dose: 12.5 mg/kg/injection, schedule: Q01DX009 (ip), vehicle: saline with Tween-80
[5] = dose: 50.0 mg/kg/injection, schedule: Q04DX003 (ip), vehicle: Klucel (hydroxypropylcellulose) (HPC)
[6] = dose: 100.0 mg/kg/injection, schedule: Q04DX003 (ip), vehicle: Klucel (hydroxypropylcellulose) (HPC)
[7] = dose: 200.0 mg/kg/injection, schedule: Q04DX003 (ip), vehicle: Klucel (hydroxypropylcellulose) (HPC)
[8] = dose: 100.0 mg/kg/injection, schedule: Q04DX002 (ip), vehicle: saline with Tween-80
[9] = dose: 100.0 mg/kg/injection, schedule: Q01DX009 (ip), vehicle: Klucel (hydroxypropylcellulose) (HPC)

Measured: T/C

Brc1ccc(C[N+]23CN4CN(CN(C4)C2)C3)cc1
inactive: dose: 100.0 mg/kg/injection, schedule: Q01DX009 (ip), vehicle: saline 115 % of control | dose: 100.0 mg/kg/injection, schedule: Q04DX003 (ip), vehicle: saline 118 % of control | dose: 132.0 mg/kg/injection, schedule: Q01DX009 (ip), vehicle: saline with Tween-80 107 % of control and 108 % of control | dose: 200.0 mg/kg/injection, schedule: Q01DX009 (ip), vehicle: saline 90 % of control | dose: 200.0 mg/kg/injection, schedule: Q04DX003 (ip), vehicle: saline 122 % of control

CN(C)CCNCc1c[nH]c(=O)[nH]c1=O
inactive: [1] 97 % of control | [2] 94 % of control | [3] 93 % of control

COP(=S)(NC(C)C)Oc1ccc(C)cc1[N+](=O)[O-] (centres undefined)
inactive: dose: 1.56 mg/kg/injection, schedule: Q01DX009 (ip), vehicle: saline with Tween-80 106 % of control | dose: 3.13 mg/kg/injection, schedule: Q01DX009 (ip), vehicle: saline with Tween-80 89 % of control | dose: 6.25 mg/kg/injection, schedule: Q01DX009 (ip), vehicle: saline with Tween-80 97 % of control | [4] 100 % of control

COC1=C(C2=C(OC)C(=O)c3cc4oc(C)cc(=O)c4c(O)c3C2=O)C(=O)c2c(cc3oc(C)cc(=O)c3c2O)C1=O
inactive: dose: 0.37 mg/kg/injection, schedule: Q01DX009 (ip), vehicle: saline 99 % of control | dose: 0.75 mg/kg/injection, schedule: Q01DX009 (ip), vehicle: saline 105 % of control | dose: 1.5 mg/kg/injection, schedule: Q01DX009 (ip), vehicle: saline 111 % of control | dose: 3.0 mg/kg/injection, schedule: Q01DX009 (ip), vehicle: saline 101 % of control

NC(=O)C1=C(O)C(=O)NC1=O
inactive: [5] 100 % of control | [6] 109 % of control | [7] 95 % of control

CSC1(CC(=O)N2CCCCC2)C(=O)Nc2ccccc21 (centres undefined)
inactive: dose: 50.0 mg/kg/injection, schedule: Q04DX002 (ip), vehicle: saline with Tween-80 95 % of control | [8] 101 % of control | dose: 200.0 mg/kg/injection, schedule: Q04DX002 (ip), vehicle: saline with Tween-80 95 % of control

O=C(Nc1ccccc1)Oc1cccc(/C=N/Sc2ccccc2)c1
inactive: [4] 107 % of control | dose: 25.0 mg/kg/injection, schedule: Q01DX009 (ip), vehicle: saline with Tween-80 100 % of control | [1] 91 % of control

COC1(C)CCC(C=O)C(C#N)(C#N)C1(C#N)C#N (centres undefined)
inactive: dose: 12.5 mg/kg/injection, schedule: Q01DX001 (ip), vehicle: saline with Tween-80 98 % of control | dose: 25.0 mg/kg/injection, schedule: Q01DX001 (ip), vehicle: saline with Tween-80 100 % of control | dose: 50.0 mg/kg/injection, schedule: Q01DX001 (ip), vehicle: saline with Tween-80 104 % of control

C=CC1CCCCC1C=C (centres undefined)
inactive: dose: 25.0 mg/kg/injection, schedule: Q01DX009 (ip), vehicle: saline 107 % of control | dose: 50.0 mg/kg/injection, schedule: Q01DX009 (ip), vehicle: saline 88 % of control

C=C1CC(OC(C)=O)C2C(OC(=O)C2(C)OC(=O)/C(C)=C\C)C2C(C)=CC(=O)C12 (centres undefined)
inactive: dose: 4.0 mg/kg/injection, schedule: Q01DX009 (ip), vehicle: Klucel (hydroxypropylcellulose) (HPC) 100 % of control | dose: 8.0 mg/kg/injection, schedule: Q01DX009 (ip), vehicle: Klucel (hydroxypropylcellulose) (HPC) 109 % of control

CC(=O)NS(=O)(=O)c1ccc(NC(=O)/C=C/C(=O)O)cc1
inactive: dose: 100.0 mg/kg/injection, schedule: Q04DX003 (ip), vehicle: saline with Tween-80 104 % of control | dose: 200.0 mg/kg/injection, schedule: Q04DX003 (ip), vehicle: saline with Tween-80 118 % of control | dose: 400.0 mg/kg/injection, schedule: Q04DX003 (ip), vehicle: saline with Tween-80 104 % of control

CCn1cnc2c(SC)nc(N)nc21
inactive: dose: 25.0 mg/kg/injection, schedule: Q01DX009 (ip), vehicle: Klucel (hydroxypropylcellulose) (HPC) 110 % of control | dose: 50.0 mg/kg/injection, schedule: Q01DX009 (ip), vehicle: Klucel (hydroxypropylcellulose) (HPC) 105 % of control | dose: 50.0 mg/kg/injection, schedule: Q04DX003 (ip), vehicle: alcohol 100 % of control | dose: 75.0 mg/kg/injection, schedule: Q04DX003 (ip), vehicle: Klucel (hydroxypropylcellulose) (HPC) 104 % of control | [9] 100 % of control | dose: 100.0 mg/kg/injection, schedule: Q04DX003 (ip), vehicle: alcohol 100 % of control | dose: 150.0 mg/kg/injection, schedule: Q04DX003 (ip), vehicle: Klucel (hydroxypropylcellulose) (HPC) 100 % of control | dose: 200.0 mg/kg/injection, schedule: Q04DX003 (ip), vehicle: alcohol 100 % of control | dose: 300.0 mg/kg/injection, schedule: Q04DX003 (ip), vehicle: Klucel (hydroxypropylcellulose) (HPC) 109 % of control

O=C(OC1COC(n2c(=O)oc3ccc(F)cc32)C(OC(=O)c2ccccc2)C1OC(=O)c1ccccc1)c1ccccc1 (centres undefined)
inactive: [9] 104 % of control | [6] 113 % of control | dose: 200.0 mg/kg/injection, schedule: Q01DX009 (ip), vehicle: Klucel (hydroxypropylcellulose) (HPC) 100 % of control | [7] 100 % of control | dose: 400.0 mg/kg/injection, schedule: Q01DX009 (ip), vehicle: Klucel (hydroxypropylcellulose) (HPC) 90 % of control | dose: 400.0 mg/kg/injection, schedule: Q04DX003 (ip), vehicle: Klucel (hydroxypropylcellulose) (HPC) 95 % of control

N#C[C@@H]1C2C=CC(CC2)[C@H]1C#N
inactive: dose: 0.29 mg/kg/injection, schedule: Q04DX003 (ip), vehicle: saline 95 % of control | dose: 0.44 mg/kg/injection, schedule: Q04DX003 (ip), vehicle: saline 120 % of control | dose: 0.66 mg/kg/injection, schedule: Q04DX003 (ip), vehicle: saline 100 % of control | dose: 1.0 mg/kg/injection, schedule: Q04DX003 (ip), vehicle: saline 115 % of control | dose: 1.5 mg/kg/injection, schedule: Q04DX003 (ip), vehicle: saline 100 % of control | dose: 5.0 mg/kg/injection, schedule: Q04DX003 (ip), vehicle: saline with Tween-80 100 % of control

CCCCOCCOc1ccc(C(=O)OC)cc1
inactive: dose: 50.0 mg/kg/injection, schedule: Q04DX003 (ip), vehicle: saline sonified 100 % of control | dose: 100.0 mg/kg/injection, schedule: Q04DX003 (ip), vehicle: saline sonified 100 % of control | dose: 200.0 mg/kg/injection, schedule: Q04DX003 (ip), vehicle: saline sonified 105 % of control

COC(=O)CCCCI
inactive: dose: 50.0 mg/kg/injection, schedule: Q01DX005 (ip), vehicle: saline with Tween-80 105 % of control | dose: 100.0 mg/kg/injection, schedule: Q01DX005 (ip), vehicle: saline with Tween-80 110 % of control | dose: 200.0 mg/kg/injection, schedule: Q01DX005 (ip), vehicle: saline with Tween-80 107 % of control

CC1CCCN2C(=O)CN(N3CCOCC3)CC(=O)N12 (centres undefined)
inactive: [8] 121 % of control

Cc1cc(C(C)(CC(C)C)c2ccc(O)c(C)c2)ccc1O
inactive: dose: 100.0 mg/kg/injection, schedule: Q01DX009 (ip), vehicle: gum acacia 120 % of control | dose: 200.0 mg/kg/injection, schedule: Q01DX009 (ip), vehicle: gum acacia 108 % of control

Cc1cc2nc3n(c2cc1C)C(C)(C)N=C(N)N3
inactive: [1] 102 % of control | [2] 112 % of control

O=C(O)/C(=C\c1ccncc1)c1cccc2ccccc12
inactive: [5] 100 % of control | [6] 100 % of control | [7] 100 % of control

CC(C)(C)N=Cc1ccccc1O.CC(C)(C)N=Cc1ccccc1O.[Cu]
inactive: dose: 6.25 mg/kg/injection, schedule: Q04DX003 (ip), vehicle: saline 100 % of control | dose: 12.5 mg/kg/injection, schedule: Q04DX003 (ip), vehicle: saline 90 % of control | dose: 25.0 mg/kg/injection, schedule: Q04DX003 (ip), vehicle: saline 95 % of control

COC(CBr)OC
inactive: dose: 10.0 mg/kg/injection, schedule: Q01DX009 (ip), vehicle: saline 102 % of control | dose: 20.0 mg/kg/injection, schedule: Q01DX009 (ip), vehicle: saline 98 % of control | dose: 40.0 mg/kg/injection, schedule: Q01DX009 (ip), vehicle: saline 98 % of control

CCSC(CC(C)=O)c1ccc(Cl)c(Cl)c1 (centres undefined)
inactive: [1] 104 % of control | [2] 107 % of control | [3] 118 % of control
